Measured values published in the Kinase Knowledgebase extract (Sharma et al. 2016).

Target: PIK3CA (human) (UniProt P42336)
Assay: Inhibition of PIK3CA Kinase Activity

Sequence of PIK3CA (human) (P42336 whole entry, looked up): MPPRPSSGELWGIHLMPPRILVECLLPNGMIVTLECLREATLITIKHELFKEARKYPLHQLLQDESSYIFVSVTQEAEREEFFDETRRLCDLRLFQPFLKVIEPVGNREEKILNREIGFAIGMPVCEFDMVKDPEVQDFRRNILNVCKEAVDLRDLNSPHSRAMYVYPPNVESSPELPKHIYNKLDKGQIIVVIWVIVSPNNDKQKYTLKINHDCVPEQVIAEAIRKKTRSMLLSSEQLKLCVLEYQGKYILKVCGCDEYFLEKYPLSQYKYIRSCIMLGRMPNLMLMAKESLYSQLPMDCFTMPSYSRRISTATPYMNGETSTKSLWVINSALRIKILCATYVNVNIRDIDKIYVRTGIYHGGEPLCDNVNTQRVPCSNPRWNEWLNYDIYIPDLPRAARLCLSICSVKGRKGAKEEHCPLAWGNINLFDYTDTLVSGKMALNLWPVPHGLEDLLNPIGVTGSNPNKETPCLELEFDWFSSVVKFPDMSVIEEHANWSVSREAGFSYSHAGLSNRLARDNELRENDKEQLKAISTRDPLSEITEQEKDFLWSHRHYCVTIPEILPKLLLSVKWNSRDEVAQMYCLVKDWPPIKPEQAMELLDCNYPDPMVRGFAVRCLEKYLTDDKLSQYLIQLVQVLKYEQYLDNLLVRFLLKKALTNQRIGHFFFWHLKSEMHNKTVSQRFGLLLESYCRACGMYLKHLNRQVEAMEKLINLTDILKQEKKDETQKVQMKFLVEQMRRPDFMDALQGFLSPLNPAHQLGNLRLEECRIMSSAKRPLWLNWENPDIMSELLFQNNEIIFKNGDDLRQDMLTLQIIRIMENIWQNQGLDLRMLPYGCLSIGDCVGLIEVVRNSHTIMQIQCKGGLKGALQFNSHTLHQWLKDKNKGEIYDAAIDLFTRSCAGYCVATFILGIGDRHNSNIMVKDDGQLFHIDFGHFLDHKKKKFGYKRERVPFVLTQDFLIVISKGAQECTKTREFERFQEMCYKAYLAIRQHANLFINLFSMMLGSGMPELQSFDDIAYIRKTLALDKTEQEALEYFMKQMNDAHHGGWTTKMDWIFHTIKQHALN

**Q.** `Cc1nc2cc(-c3ccc4c(c3)CN(c3nc(CN(C)C)nc(C)c3C(C)C)CCO4)cnc2[nH]1` was tested. Which IC50 did it give?
**A.** ≤ 10 nM

**Q.** With `Cc1nc2ccc(-c3ccc4c(c3)CN(c3ncnc(Nc5ccccc5)c3C)CCO4)cc2[nH]1` as the compound, how does the IC50 read?
**A.** 50 to 250 nM

**Q.** `CC1(C)CCc2ncnc(N3CCOc4ccc(-c5cnc(N)c(S(=O)(=O)N6CCC(O)CC6)c5)cc4C3)c2C1` was tested. Which IC50 did it give?
**A.** 50 to 250 nM

**Q.** For `Cc1nc2cc(-c3ccc4c(c3)CN(c3nc(NCCN(C)C)nc(C)c3Cc3ccc(F)cc3)CCO4)ccc2[nH]1`, which IC50 is on record?
**A.** 10 to 50 nM

**Q.** With `CN(C)C(=O)c1cc(-c2ccc3c(c2)CN(c2ncnc4c2CC(C)(C)CC4)CCO3)cnc1N` as the compound, how does the IC50 read?
**A.** 250 to 1000 nM

**Q.** Which IC50 does the source give for `CN1C[C@@H]2C[C@H]1CN2S(=O)(=O)c1cc(-c2ccc3c(c2)CN(c2ncnc4c2CC(C)(C)CC4)CCO3)cnc1N` here?
**A.** 50 to 250 nM

**Q.** With `COc1c(Br)ccc2c(N3CCOc4ccc(-c5ccc6nc(C)[nH]c6c5)cc4C3)ncnc12` as the compound, how does the IC50 read?
**A.** 10 to 50 nM

**Q.** Which IC50 does the source give for `Cc1nc2ccc(-c3ccc4c(c3)CN(c3nc(CNC5CCC5)nc5c3CC(C)(C)CC5)CCO4)cc2[nH]1` here?
**A.** 10 to 50 nM

**Q.** Which IC50 does the source give for `COc1cc2ncnc(N3CCOc4ccc(-c5ccc6nc(C)[nH]c6c5)cc4C3)c2cc1Cl` here?
**A.** 10 to 50 nM

**Q.** `CC1(C)CCc2ncnc(N3CCOc4ccc(-c5cnc(N)c(S(=O)(=O)N6CC(C)(N)C6)c5)cc4C3)c2C1` was tested. Which IC50 did it give?
**A.** 10 to 50 nM

**Q.** How did the IC50 turn out when `CC1(C)CCc2ncnc(N3CCOc4ccc(-c5cnc(N)c(S(=O)(=O)N6CC[C@@H](N)C6)c5)cc4C3)c2C1` was run?
**A.** 10 to 50 nM

**Q.** With `CCS(=O)(=O)c1cc(-c2ccc3c(c2)CN(c2ncnc4c2CC(C)(C)CC4)CCO3)cnc1N` as the compound, how does the IC50 read?
**A.** 10 to 50 nM

**Q.** For `COC(=O)Nc1nc2ncc(-c3ccc4c(c3)CN(c3nc(CN(C)C)nc5c3CC(C)(C)CC5)CCO4)cc2[nH]1`, which IC50 is on record?
**A.** ≤ 10 nM

**Q.** `Cc1nc(CNCCF)nc(N2CCOc3ccc(-c4cnc5sc(N)nc5c4)cc3C2)c1C(C)C` was tested. Which IC50 did it give?
**A.** ≤ 10 nM

**Q.** Which IC50 does the source give for `c1ccc2c(N3CCOc4ccc(-c5ccc6nc(C7CC7)[nH]c6c5)cc4C3)ccnc2c1` here?
**A.** 10 to 50 nM

**Q.** `CC1(C)CCc2ncnc(N3CCOc4ccc(-c5cncc(S(N)(=O)=O)c5)cc4C3)c2C1` was tested. Which IC50 did it give?
**A.** 50 to 250 nM

**Q.** With `COc1ccc2c(N3CCOc4ccc(-c5ccc6nc(N)[nH]c6c5)cc4C3)nc(C)nc2c1` as the compound, how does the IC50 read?
**A.** ≤ 10 nM

**Q.** How did the IC50 turn out when `COCCOCc1nc2c(c(N3CCOc4ccc(-c5ccc6nc(C)[nH]c6c5)cc4C3)n1)CC(C)(C)CC2` was run?
**A.** 50 to 250 nM

**Q.** Which IC50 does the source give for `CN(c1cc(-c2ccc3c(c2)CN(c2ncnc4c2CC(C)(C)CC4)CCO3)cnc1Cl)S(C)(=O)=O` here?
**A.** 250 to 1000 nM

**Q.** `CC1(C)CCc2ncnc(N3CCOc4ccc(-c5cnc(N)c(S(=O)(=O)NC6CC7CCC(C6)N7)c5)cc4C3)c2C1` (configuration not stated) was tested. Which IC50 did it give?
**A.** 50 to 250 nM

**Q.** How did the IC50 turn out when `Cc1ncnc(N2CCOc3ccc(-c4cnc5nc[nH]c5c4)cc3C2)c1Cc1ccc(F)cc1` was run?
**A.** 10 to 50 nM

**Q.** `CC1(C)CCc2ncnc(N3CCOc4ccc(-c5cnc(N)c(S(=O)(=O)NCC6CNC6)c5)cc4C3)c2C1` was tested. Which IC50 did it give?
**A.** 10 to 50 nM

**Q.** How did the IC50 turn out when `CCNc1nc(C)nc(N2CCOc3ccc(-c4cnc5nc(C)[nH]c5c4)cc3C2)c1C` was run?
**A.** 10 to 50 nM

**Q.** With `CC1(C)CCc2ncnc(N3CCOc4ccc(-c5cnc(N)c(S(=O)(=O)NCCCO)c5)cc4C3)c2C1` as the compound, how does the IC50 read?
**A.** ≤ 10 nM

**Q.** With `CCNc1nc(N2CCOc3ccc(-c4ccc5nc(NCC)[nH]c5c4)cc3C2)c2ccccc2n1` as the compound, how does the IC50 read?
**A.** 50 to 250 nM

**Q.** `Cc1nc2ccc(-c3ccc4c(c3)CN(c3ncnc5c(Cl)cccc35)CCO4)cc2[nH]1` was tested. Which IC50 did it give?
**A.** 10 to 50 nM

**Q.** With `COCc1nc2ccc(-c3ccc4c(c3)CN(c3ccnc5ccccc35)CCO4)cc2[nH]1` as the compound, how does the IC50 read?
**A.** 250 to 1000 nM

**Q.** For `CC(C)(N)CNS(=O)(=O)c1cc(-c2ccc3c(c2)CN(c2ncnc4c2CC(C)(C)CC4)CCO3)cnc1N`, which IC50 is on record?
**A.** 50 to 250 nM

**Q.** With `CCCc1c(C)nc(CN(C)C)nc1N1CCOc2ccc(-c3ccc4nc(C)[nH]c4c3)cc2C1` as the compound, how does the IC50 read?
**A.** 10 to 50 nM

**Q.** With `CC(C)(CN)CNS(=O)(=O)c1cc(-c2ccc3c(c2)CN(c2ncnc4c2CC(C)(C)CC4)CCO3)cnc1N` as the compound, how does the IC50 read?
**A.** 50 to 250 nM

**Q.** With `CCN(C)S(=O)(=O)c1cc(-c2ccc3c(c2)CN(c2ncnc4c2CC(C)(C)CC4)CCO3)cnc1N` as the compound, how does the IC50 read?
**A.** 50 to 250 nM

**Q.** With `Cc1nc2ncc(-c3ccc4c(c3)CN(c3nc(CN[C@@H](C)C(=O)O)nc5c3CC(C)(C)CC5)CCO4)cc2[nH]1` as the compound, how does the IC50 read?
**A.** ≤ 10 nM

**Q.** `CC1(C)CCc2ncnc(N3CCOc4ccc(-c5cnc(N)c(S(=O)(=O)NCC6CCNCC6)c5)cc4C3)c2C1` was tested. Which IC50 did it give?
**A.** 10 to 50 nM

**Q.** How did the IC50 turn out when `C=Cc1nc2c(c(N3CCOc4ccc(-c5cnc6[nH]c(C)nc6c5)cc4C3)n1)CC(C)(C)CC2` was run?
**A.** 50 to 250 nM

**Q.** How did the IC50 turn out when `COC(=O)Nc1nc2ncc(-c3ccc4c(c3)CN(c3ncnc5c3CC(C)(C)C=C5)CCO4)cc2[nH]1` was run?
**A.** ≤ 10 nM

**Q.** `Cc1nc2cc(-c3ccc4c(c3)CN(c3nc(CN5CCCC5)nc5c3CC(C)(C)CC5)CCO4)cnc2[nH]1` was tested. Which IC50 did it give?
**A.** ≤ 10 nM

**Q.** Which IC50 does the source give for `COCCOc1cc(-c2ccc3c(c2)CN(c2nc(CN(C)C)nc4c2CC(C)(C)CC4)CCO3)ccc1OC` here?
**A.** 50 to 250 nM

**Q.** How did the IC50 turn out when `Cc1nc2c(c(N3CCOc4ccc(-c5cnc6nc(C7CC7)[nH]c6c5)cc4C3)n1)CC(C)(C)CC2` was run?
**A.** 50 to 250 nM

**Q.** How did the IC50 turn out when `COC(=O)Nc1nc2ccc(-c3ccc4c(c3)CN(c3nccc5ccccc35)CCO4)cc2[nH]1` was run?
**A.** 50 to 250 nM

**Q.** `Cc1nc2ccc(-c3ccc4c(c3)CN(c3ncnc(C)c3Cc3cccc(F)c3)CCO4)cc2[nH]1` was tested. Which IC50 did it give?
**A.** 10 to 50 nM

**Q.** With `CC1(C)CCc2ncnc(N3CCOc4ccc(-c5cnc(Cl)c(S(=O)(=O)N6CC[C@H](N)C6)c5)cc4C3)c2C1` as the compound, how does the IC50 read?
**A.** 250 to 1000 nM

**Q.** `Cc1nc(C)c(CC2CC2)c(N2CCOc3ccc(-c4cnc5nc(C)[nH]c5c4)cc3C2)n1` was tested. Which IC50 did it give?
**A.** 10 to 50 nM
